Where two headings read alike, the source gives them in different places.
Assays:
[1] = molecular target: T1, homomeric ASIC3 (Rattus norvegicus, UniProt O35240); experiment: Patch-clamp recording of ASIC3 currents in CHO cells with transient expression
T1 sequence (O35240 1-533): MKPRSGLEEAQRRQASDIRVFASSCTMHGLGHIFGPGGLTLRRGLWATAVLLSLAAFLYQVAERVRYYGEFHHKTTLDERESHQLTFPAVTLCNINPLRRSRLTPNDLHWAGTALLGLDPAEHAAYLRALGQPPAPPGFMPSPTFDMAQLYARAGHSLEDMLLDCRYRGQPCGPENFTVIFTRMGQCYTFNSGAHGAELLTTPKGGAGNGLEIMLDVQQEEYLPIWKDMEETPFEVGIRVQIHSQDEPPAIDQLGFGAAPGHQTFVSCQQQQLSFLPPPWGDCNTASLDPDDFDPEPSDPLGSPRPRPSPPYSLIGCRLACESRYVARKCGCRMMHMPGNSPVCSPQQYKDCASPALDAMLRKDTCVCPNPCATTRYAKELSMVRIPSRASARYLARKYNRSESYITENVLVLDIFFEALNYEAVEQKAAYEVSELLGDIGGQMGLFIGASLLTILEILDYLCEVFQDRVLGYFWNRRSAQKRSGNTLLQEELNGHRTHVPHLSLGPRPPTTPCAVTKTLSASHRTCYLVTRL
Procedure: Chinese hamster ovary (CHO) cells were cultured in F12-K medium (Invitrogen) plus 10% fetal bovine serum, 50 units/nal penicillin, and 50 μg/m1 streptomycin. At ˜50% confluence, CHO cells were co-transfected with cDNAs for rat ASIC1β, ASIC2a, or ASIC3, and that for GFP. GFP-positive cells were used for electrophysiological recordings 24-72 h after transient transfection.
ASIC currents were recorded using patch-clamp techniques. Pipette solution contained (mM): 140 CsF, 1 CaCl2, 2 MgCl2, 11 EGTA, 2 tetraethylammonium chloride, 10 HEPES and 4 MgATP, pH 7.3 adjusted with CsOH, 290-300 mOsm. Extracellular Fluid (ECF) contained (mM): 140 NaCl, 5.4 KCl, 2 CaCl2, 1 MgCl2, 10 glucose, and 10 HEPES (320-330 mOsm). A multi-barrel perfusion system (SF-77 Warner Instruments, Hamden, CT) was used to obtain a rapid exchange of ECFs. Currents were recorded with Axopatch 200B amplifier, filtered at 2 kHz, and digitized at 5 kHz using Digidata 1332A. ASIC currents were induced by rapid perfusion of the cells with acidic ECF for 4 seconds. Unless otherwise stated, cells were clamped at a holding potential of −60 mV. […] Data were excluded for statistical analysis when access resistance was >10 MΩ or leak current was >100 pA.
Therefore, the study used pH 6.0 and 4.5 to activate ASIC1β and ASIC2a currents, respectively. […]

[2] = system: mice (depression-like behavior); experiment: Tail suspension test; assay type: in vivo, mouse
Procedure: This test is performed by the Tennessee Mouse Genome Consortium (tnmouse.org/neuromutagenesis/behavioral). Mice are suspended by the tail from a ledge ˜60 cm from the ground with adhesive tape. Immobility is defined as the absence of movement and is scored over a 6—min trial.

[3] = molecular target: T2, heteromeric ASIC1a/2a channels (Mus musculus, UniProt Q6NXK8+Q925H0); experiment: ASIC currents in cortical neurons in the presence of PcTx1 (heteromeric channels); conditions: Triol 10 μM
T2 sequence (Q6NXK8 1-526): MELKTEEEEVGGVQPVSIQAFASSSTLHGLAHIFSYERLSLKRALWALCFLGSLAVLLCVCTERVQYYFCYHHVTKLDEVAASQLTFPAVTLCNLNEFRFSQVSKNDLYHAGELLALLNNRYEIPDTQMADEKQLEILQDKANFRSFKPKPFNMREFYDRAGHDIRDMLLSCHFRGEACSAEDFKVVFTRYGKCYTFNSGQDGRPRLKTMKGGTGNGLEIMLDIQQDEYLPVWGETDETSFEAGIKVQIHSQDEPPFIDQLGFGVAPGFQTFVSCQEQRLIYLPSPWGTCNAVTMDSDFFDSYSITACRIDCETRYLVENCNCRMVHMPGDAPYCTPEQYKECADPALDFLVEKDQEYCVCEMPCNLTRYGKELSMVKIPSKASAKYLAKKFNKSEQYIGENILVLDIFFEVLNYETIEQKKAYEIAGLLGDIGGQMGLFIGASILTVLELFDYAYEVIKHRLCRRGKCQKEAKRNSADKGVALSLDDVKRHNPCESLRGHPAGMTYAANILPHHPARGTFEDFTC
T2 sequence (Q925H0 1-512): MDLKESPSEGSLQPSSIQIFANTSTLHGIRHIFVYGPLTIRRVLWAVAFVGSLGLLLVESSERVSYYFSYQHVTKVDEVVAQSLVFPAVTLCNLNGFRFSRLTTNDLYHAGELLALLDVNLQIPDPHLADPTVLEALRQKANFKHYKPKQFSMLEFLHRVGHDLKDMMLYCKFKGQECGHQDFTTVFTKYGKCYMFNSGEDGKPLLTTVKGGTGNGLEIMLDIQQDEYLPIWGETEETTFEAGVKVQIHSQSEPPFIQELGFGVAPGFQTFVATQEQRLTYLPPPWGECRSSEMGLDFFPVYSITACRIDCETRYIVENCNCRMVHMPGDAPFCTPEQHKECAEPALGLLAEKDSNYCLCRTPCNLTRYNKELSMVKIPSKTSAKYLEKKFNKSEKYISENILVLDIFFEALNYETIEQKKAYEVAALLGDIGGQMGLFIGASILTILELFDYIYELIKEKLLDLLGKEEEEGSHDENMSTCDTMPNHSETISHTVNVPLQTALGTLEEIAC
Procedure: Mouse cortical neurons were cultured. Pregnant Swiss mice were purchased from Charles River. The use of mice for neuronal cultures was approved by the Institutional Animal Care and Use Committee of Morehouse School of Medicine. Briefly, the brains of fetuses (embryonic day 16) were removed quickly from anesthetized pregnant mice and placed in cold Ca2+/Mg2+-free PBS. Cerebral cortices were dissected and incubated with 0.05% trypsin-EDTA for 10 min at 37° C., followed by trituration. Cells were plated in poly-L-ornithine-coated culture dishes. Cells were initially cultured in minimal essential medium (MEM) with 10% fetal bovine serum (FBS), 10% horse serum, and 25 mM glucose and maintained at 37° C. in a humidified 5% CO2 atmosphere incubator for 24 h. After that, the culture medium was completely replaced by Neurobasal medium supplemented with B-27 (Invitrogen) and then changed twice a week. Neurons were used for the experiments between days 10 and 14.
ASIC currents were recorded using patch-clamp techniques. Pipette solution contained (mM): 140 CsF, 1 CaCl2, 2 MgCl2, 11 EGTA, 2 tetraethylammonium chloride, 10 HEPES and 4 MgATP, pH 7.3 adjusted with CsOH, 290-300 mOsm. […] Currents were recorded with Axopatch 200B amplifier, filtered at 2 kHz, and digitized at 5 kHz using Digidata 1332A. […]

[4] = system: ASIC currents (ASIC1a-like) in cortical neurons; experiment: Patch-clamp recording of ASIC (ASIC1a-like) currents in primary cultured mouse cortical neurons; assay type: cell-based
[5] = system: mice (depression-like behavior); experiment: Forced swim test; assay type: in vivo, mouse
[6] = system: corticosterone-induced depression-like behaviors in mice; experiment: Mouse model of depression induced by repeated corticosterone injections; assay type: in vivo; conditions: 12 mg/kg i.p. daily, corticosterone 40 mg/kg i.p. for 21 days
Procedure: Based on the fact that Triol inhibits ASIC1a, Triol can have anti-depression activity. […] A mouse model of depression induced by repeated corticosterone injections is used. Depression-like behaviors are induced by repeated administration of corticosterone (40 mg/kg, i.p.), once a day for 21 days in mice. Mice arerandomly assigned to 4 experimental groups (n=10/group). Control, corticosterone, corticosterone +Vehicle (20% HP-β-CD) and corticosterone+ Triol (12 mg/kg, i.p.). Triol is administered daily. The sucrose consumption test, open-field test (OFT), tail suspension test (TST), and forced swimming test (FST) are used to evaluate the therapeutic effect of Triol.

[7] = 10 μM, before and after perfusion for 5 min

For `CC(C)CCC[C@@H](C)[C@H]1CC[C@H]2[C@@H]3C[C@@H](O)[C@@]4(O)C[C@@H](O)CC[C@]4(C)[C@H]3CC[C@]12C` [Triol, cholestane-3β, 5α, 6β-triol], the inhibition at 10 µM ([1]; pH 5.5, read-out: inhibition of ASIC3 peak current component) was roughly 23%, the inhibition at 10 µM ([1]; pH 5.5, read-out: inhibition of ASIC3 sustained current component) was roughly 54% and the “depression-like behavior in the tail suspension test” value [2] was “decreased levels of depression-like behavior”. For the same compound, the “effect on remaining ASIC currents in the presence of PcTx1” value ([3]; PcTx1 40 nM, PcTx-1 sensitive neurons, n=9) was “further inhibited”, the “effect on PcTx1 insensitive ASIC currents” value ([3]; PcTx-1 insensitive neurons (3 of 12 cells)) was “still inhibit these currents” and the “effect on current-voltage relationship (IV)” value [4, 7] was “does not affect the current-voltage relationship”. For the same compound, the “shift in the pH dose-response of ASIC peak currents” value [4, 7] was “not a significant shift”, the “decrease of ASIC currents in cortical neurons” value ([4]; 10 μM, within 5 min of application/perfusion) was roughly 40% and the “reversibility of ASIC current inhibition in cortical neurons” value ([4]; after 30 min washout (data not shown)) was “irreversible”. The “voltage dependence of inhibitory activity” value ([4]; holding potential −60 mV vs −30 mV) was “no significant change in the inhibitory activity”, the “depression-like behavior in the forced swim test” value [5] was “decreased levels of depression-like behavior” and the “antidepressant activity (sucrose consumption, OFT, TST, FST)” value [6] was “alleviating corticosterone-induced depression-like behaviors”.

Source: patent publication US20240165129A1, “METHODS OF TREATING PAIN AND DEPRESSION” (priority 2022, published 2024)
